In patent US5712417A, “Inhibitors of retroviral proteases” (Abbott Laboratories, priority 1989, dated 1998):
Structures can show the parent of a compound that is named as a salt.

target: T1, HIV protease (Human immunodeficiency virus type 1 group M subtype B, UniProt P04585); experiment: Inhibition of HIV protease (cleavage of H-Ser-Phe-Asn-Phe-Opr-Gln-Ile-OH, HPLC); type: biochemical; conditions: inhibitor concentration at which the cleavage rate is halved; pH 6, 2 hours
T1 construct: HIV protease consists of 99 amino acids and is evidently split off by itself from the pol polyprotein
Source text: The compounds of the formula (I) according to the invention have enzyme-inhibiting properties. In particular, they inhibit the action of retroviral aspartyl proteases, such as that of HIV protease. Their enzyme-inhibitory action, which is in the milli- to subnanomolar range, can be determined as follows.
The heptapeptide: H-Ser-Phe-Asn-Phe-Pro-Gln-Ile-OH (P. L. Darke et al., Biophys. Res. Commun. 156 (1988) 297-303), inter alia, has hitherto been used as the substrate of HIV protease. HIV protease cleaves the substrate here between the second Phe and Pro.
General instructions for testing inhibitors of HIV proteases: a) Preparation of the substrate solution:
2 mg of H-Ser-Phe-Asn-Phe-Opr-Gln-Ile-OH (H-Opr-OH=5-oxaproline) are dissolved in 1 ml of MGTE15 buffer (use of ultrasound if necessary) and the solution is then filtered over a sterile filter (0.45 μm). […]
b) Preparation of the inhibitor solution:
2.5 times the desired molarity of the inhibitor per ml of solution are weighed out and dissolved in DMSO (10% of the final volume). The solution is diluted to the final volume with MGTE15 buffer and filtered over a sterile filter (0.45 μm). […]
c) Preparation of the protease solution:
5 μl of the HIV protease solution are diluted with MGTE25 buffer as required.
10 μl portions of the substrate solution are pipetted into test-tubes (16×100) with a screw cap. For the blank experiment, 10 μl of MGTE15 buffer containing 10% of DMSO are pipetted into a test-tube. 10 μl portions of the inhibitor solutions are added to the other test-tubes. The mixtures are incubated at 37° C. for 5-10 minutes and 5 μl of the protease solution are then added to each sample, After reaction at 35° C. for 2 hours, 10 or 20 μl (depending on the sensitivity of the HPLC apparatus) of each sample are then pipetted off, introduced into microvials and diluted with 120 μl of the HPLC mobile phase. […]
e) Conditions for the HPLC analysis:
20% (weight/weight) of aceto-
Column: Merck ®LICHROSORB RP18 (5 μm) 250×4
Column temperature: 42° C.
Detector parameters: 215 nm, 0.08 AUF, 18.2° C.
Analysis time: 11 minutes
Retention time of the substrate: 8.1 minutes
Retention time of the N-terminal tetrapeptide: 3.9 minutes
20 mM morpholinoethanesulfonic acid (MES)
15% (weight/volume) of glycerol
0.1% (volume/volume) of Triton ×100
1 mM phenylmethylsulfonyl fluoride (PMSF)
25% (weight/volume) of glycerol, additionally 1 mM dithiothreitol (DTT) The MES, EDTA, NaCl, DTT and PMSF are weighed into a conical flask and dissolved in a little water and the pH is brought to 6. The corresponding amount of glycerol is weighed into a measuring flask and ®Triton ×100 is pipetted in. The aqueous solution is transferred to the measuring flask and made up to the mark with water.
A 0.1M solution is prepared from orthophosphoric acid (FLUKA extra pure analytical grade). This solution is brought to exactly pH 2.5 with triethylamine (FLUKA extra pure analytical grade). The weight of the solution is determined and the corresponding amount of acetonitrile (fume cupboard) is weighed in. The mixture is mixed thoroughly and degassed with helium 5.0 for about 5 minutes.
Under the conditions chosen here, heptapeptides are separated from the N-terminal tetrapeptide formed during enzymatic cleavage. The percentage content of the tetrapeptide peak in respect of the sum of tetrapeptide+heptapeptide corresponds to the cleaving rate. The following IC50 values indicate the inhibitor concentration at which the cleavage rate is halved.

Row | SMILES | IC50 [nM]
1 | CC(C)[C@H](NC(=O)[C@H](Cc1ccccc1)NC(=O)[C@H]1CC[C@@H](NC(=O)OC(C)(C)C)CC1)C(=O)N[C@@H](Cc1ccccc1)[C@H](O)[C@@H](O)[C@H](Cc1ccccc1)NC(=O)[C@@H](NC(=O)[C@H](Cc1ccccc1)NC(=O)[C@H]1CC[C@@H](NC(=O)OC(C)(C)C)CC1)C(C)C [Example 50, N,N'-bis-(4Z -N-tert.-Butoxycarbonylamino)-cyclohexanecarbonyl-L-phenylalanyl-L-valyl)-2S, 5S-diamino-1,6-diphenyl-4S, 5S-diol dihydrochloride] | 45

same assay, conditions: inhibitor concentration at which the cleavage rate is halved; pH 6, 2 hours; read-out: IC50

Row | SMILES | IC50 [nM]
2 | CC(C)[C@H](NC(=O)[C@H](CCCCN)NC(=O)OC(C)(C)C)C(=O)N[C@@H](Cc1ccccc1)[C@@H](O)[C@H](O)[C@H](Cc1ccccc1)NC(=O)[C@@H](NC(=O)[C@H](CCCCN)NC(=O)OC(C)(C)C)C(C)C [Example 11, N,N'-bis-(Nα-<tert.-Butoxycarbonyl>-L-lysyl-L-valyl)-2S,5S-diamino-1,6-diphenyl-hexane-3R,4R-diol dihydrochloride] | 0.8
3 | CC(C)[C@H](NC(=O)[C@H](Cc1cccc2ccccc12)CS(=O)(=O)C(C)(C)C)C(=O)N[C@@H](Cc1ccc2c(c1)OCO2)[C@@H](O)[C@H](O)[C@H](Cc1ccc2c(c1)OCO2)NC(=O)[C@@H](NC(=O)[C@H](Cc1cccc2ccccc12)CS(=O)(=O)C(C)(C)C)C(C)C [Example 155] | 10
4 | CC(C)(C)[C@H](NC(=O)[C@H](Cc1ccccc1)CS(=O)(=O)C(C)(C)C)C(=O)N[C@@H](Cc1ccccc1)[C@@H](O)[C@H](O)[C@H](Cc1ccccc1)NC(=O)[C@@H](NC(=O)[C@H](Cc1ccccc1)CS(=O)(=O)C(C)(C)C)C(C)(C)C [Example 91, N,N'-bis-<(2S-(1,1-Dimethylethylsulfonylmethyl)-3-phenyl-propionyl)-L-tert.-butylglycyl>-2S, 5S-diamino-1,6-diphenylhexane-3R, 4R-diol] | 1.3
5 | CC(C)(C)OC(=O)N[C@H](CNC[C@H](Cc1ccccc1)NC(=O)OC(C)(C)C)Cc1ccccc1 [Example 25, Bis-(N-tert.-butoxycarbonyl-2S-amino-3-phenylpropyl)-amine hydrochloride] | 18000
6 | CC(C)[C@H](NC(=O)[C@H](CCCCNC(=O)OCc1ccccc1)NC(=O)OC(C)(C)C)C(=O)N[C@@H](Cc1ccccc1)[C@@H](O)[C@H](O)[C@H](Cc1ccccc1)NC(=O)[C@@H](NC(=O)[C@H](CCCCNC(=O)OCc1ccccc1)NC(=O)OC(C)(C)C)C(C)C [Example 80] | 28
7 | CC(C)[C@H](NC(=O)[C@@H](N)Cc1ccccc1)C(=O)N[C@H](CNC[C@H](Cc1ccccc1)NC(=O)[C@@H](NC(=O)[C@@H](N)Cc1ccccc1)C(C)C)Cc1ccccc1 [Example 21, Bis-(N-(L-phenylalanyl-L-valyl)-2S-amino-3-phenylpropyl)-amine trihydrochloride] | 220
8 | CC(C)[C@H](NC(=O)[C@@H](CC(=O)OC(C)(C)C)Cc1ccccc1)C(=O)N[C@@H](Cc1ccccc1)[C@@H](O)[C@H](O)[C@H](Cc1ccccc1)NC(=O)[C@@H](NC(=O)[C@@H](CC(=O)OC(C)(C)C)Cc1ccccc1)C(C)C [Example 102, N,N'-bis-<(2R-Benzyl-3-tert.-butoxycarbonyl)-propionyl-L-valyl>-2S,5S-diamino-1,6-diphenylhexane-3R,4R-diol] | 38
9 | CC(C)[C@H](NC(=O)[C@@H]1Cc2ccccc2CN1C(=O)OCc1ccccc1)C(=O)N[C@@H](Cc1ccccc1)[C@@H](O)[C@H](O)[C@H](Cc1ccccc1)NC(=O)[C@@H](NC(=O)[C@@H]1Cc2ccccc2CN1C(=O)OCc1ccccc1)C(C)C [Example 119, N,N'-bis-<Benzyloxycarbonyl-L-1,2,3,4-tetrahydro-isoquinolin-3-ylcarbonyl-L-valyl>-2S, 5S-diamino-1,6-diphenylhexane-3R, 4R-diol] | 10000
10 | CC(C)[C@H](NC(=O)[C@H](Cc1ccccc1)NC(=O)OC(C)(C)C)C(=O)N[C@@H](Cc1ccccc1)[C@H](O)[C@@H](O)[C@H](Cc1ccccc1)NC(=O)[C@@H](NC(=O)[C@H](Cc1ccccc1)NC(=O)OC(C)(C)C)C(C)C [Example 6, N,N'-bis-(tert.-Butoxycarbonyl-L-phenylalanyl-L-valyl)-2S,5S-diamino-1,6-diphenylhexane-3S,4S-diol] | 8.8
11 | CC(C)[C@H](N)C(=O)N[C@@H](Cc1ccccc1)[C@H](O)[C@@H](O)[C@H](Cc1ccccc1)NC(=O)[C@@H](N)C(C)C [Example 131, N,N'-bis-<L-Valyl>-2S,5S-diamino-1,6-diphenylhexane-3S,4S-diol dihydrochloride] | 40000

Further lines, results first:

Row | IC50 [nM] | SMILES
12 | 40 | CC(C)[C@H](NC(=O)[C@@H](N)Cc1ccccc1)C(=O)NC[C@@H](O)[C@H](O)CNC(=O)[C@@H](NC(=O)[C@@H](N)Cc1ccccc1)C(C)C [Example 113, N,N,-bis-<L-phenylalanyl-L-valyl>-1,4-diaminobutane-2R,3R-diol dihydrochloride]
13 | 260 | CC(C)[C@H](NC(=O)[C@@H](Cc1cccs1)CS(=O)(=O)C(C)(C)C)C(=O)N[C@@H](Cc1ccccc1)[C@@H](O)[C@H](O)[C@H](Cc1ccccc1)NC(=O)[C@@H](NC(=O)[C@@H](Cc1cccs1)CS(=O)(=O)C(C)(C)C)C(C)C [Example 54, N,N,-bis-<(2R-(1,1-Dimethylethylsulfonylmethyl)-3-(2-thienyl)-propionyl)-L-valyl>-2S,5S-diamino-1,6-diphenyl-hexane-3R,4R-diol]
14 | 0.29 | COc1ccc(C[C@H](N)C(=O)N[C@H](C(=O)N[C@@H](Cc2ccccc2)[C@H](O)[C@@H](O)[C@H](Cc2ccccc2)NC(=O)[C@@H](NC(=O)[C@@H](N)Cc2ccc(OC)cc2)C(C)C)C(C)C)cc1 [Example 76, N,N'-bis-<(O-Methyltyrosyl-L-valyl>-2S,5S-diamino-1,6-diphenylhexane-3S,4S-dioldihydrochloride]
15 | 0.8 | CC(C)[C@H](NC(=O)[C@H](Cc1cccc2ccccc12)CS(=O)(=O)C(C)(C)C)C(=O)N[C@@H](Cc1ccccc1)[C@H](O)[C@@H](O)[C@H](Cc1ccccc1)NC(=O)[C@@H](NC(=O)[C@H](Cc1cccc2ccccc12)CS(=O)(=O)C(C)(C)C)C(C)C [Example 51, N,N'-bis-<(2S-(1,1-Dimethylethylsulfonylmethyl)-3-(1-naphthyl)-propionyl)-L-valyl>-2S,5S-diamino-1,6-diphenyl-hexane-3S,4S-diol]
16 | 36 | CC(C)[C@H](NC(=O)[C@@H](N)Cc1ccccc1)C(=O)N[C@@H](CCc1ccccc1)[C@@H](O)[C@H](O)[C@H](CCc1ccccc1)NC(=O)[C@@H](NC(=O)[C@@H](N)Cc1ccccc1)C(C)C [Example 148, N,N'-bis-(L-Phenylalanyl-L-valyl)-3S,6S-diamino-1,8-diphenyloctane-4R,5R-diol dihydrochloride]
17 | 1.9 | CC(C)[C@H](NC(=O)CN)C(=O)N[C@@H](Cc1ccccc1)[C@@H](O)[C@H](O)[C@H](Cc1ccccc1)NC(=O)[C@@H](NC(=O)CN)C(C)C [Example 85, N,N'-bis-<Glycyl-L-valyl>-2S,5S-diamino-1,6-diphenyl-hexane-3R,4R-dioldihydrochloride]
18 | 1 | CC(C)[C@H](NC(=O)[C@@H](N)Cc1ccccc1)C(=O)N[C@@H](Cc1ccc2c(c1)OCO2)[C@@H](O)[C@H](O)[C@H](Cc1ccc2c(c1)OCO2)NC(=O)[C@@H](NC(=O)[C@@H](N)Cc1ccccc1)C(C)C [Example 154, N,N'-bis-(L-Phenylalanyl-L-valyl)-2S,5S-diamino-1,6-bis-(3,4-methylenedioxyphenyl)-hexane-3R,4R-diol dihydro-chloride]
